Measurements published in the kinase profiling compilation of Christmann-Franck et al. (2016).

Legend:
Assay in all cases: Caliper, Mobility shift assay off-chip
DYRK1A (human) = DYRK1A (human) (UniProt Q13627)
MARK3 (human) = MARK3 (human) (UniProt P27448)
[1] = tested on: FLT3 (human), P36888 [D835Y]
MAPK3 (human) = MAPK3 (human) (UniProt P27361)
CHEK1 (human) = CHEK1 (human) (UniProt O14757)
RPS6KA1 KD1 KD2 (human) = RPS6KA1 KD1 KD2 (human) (UniProt Q15418)
MAPK13 (human) = MAPK13 (human) (UniProt O15264)
GSK3B (human) = GSK3B (human) (UniProt P49841)
Chain of GSK3B (human) (P49841 whole entry, looked up): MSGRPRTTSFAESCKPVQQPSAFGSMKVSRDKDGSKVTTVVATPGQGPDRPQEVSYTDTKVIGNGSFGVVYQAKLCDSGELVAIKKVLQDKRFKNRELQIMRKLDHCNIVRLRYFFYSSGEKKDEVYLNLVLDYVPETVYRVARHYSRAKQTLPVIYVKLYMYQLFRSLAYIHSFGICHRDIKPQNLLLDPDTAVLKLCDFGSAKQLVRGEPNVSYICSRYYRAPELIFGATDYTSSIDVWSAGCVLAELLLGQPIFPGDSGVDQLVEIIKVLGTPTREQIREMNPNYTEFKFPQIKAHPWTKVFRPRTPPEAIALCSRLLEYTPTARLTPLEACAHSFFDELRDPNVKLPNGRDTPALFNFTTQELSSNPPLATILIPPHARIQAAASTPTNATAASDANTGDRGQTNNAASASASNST

CSNK1A1 (human) = CSNK1A1 (human) (UniProt P48729)
MAPKAPK2 (human) = MAPKAPK2 (human) (UniProt P49137)
PRKCH (human) = PRKCH (human) (UniProt P24723)
MAPKAPK5 (human) = MAPKAPK5 (human) (UniProt Q8IW41)
SYK (human) = SYK (human) (UniProt P43405)
PRKACA (human) = PRKACA (human) (UniProt P17612)
KDR (human) = KDR (human) (UniProt P35968)
Chain of KDR (human) (P35968 whole entry, looked up): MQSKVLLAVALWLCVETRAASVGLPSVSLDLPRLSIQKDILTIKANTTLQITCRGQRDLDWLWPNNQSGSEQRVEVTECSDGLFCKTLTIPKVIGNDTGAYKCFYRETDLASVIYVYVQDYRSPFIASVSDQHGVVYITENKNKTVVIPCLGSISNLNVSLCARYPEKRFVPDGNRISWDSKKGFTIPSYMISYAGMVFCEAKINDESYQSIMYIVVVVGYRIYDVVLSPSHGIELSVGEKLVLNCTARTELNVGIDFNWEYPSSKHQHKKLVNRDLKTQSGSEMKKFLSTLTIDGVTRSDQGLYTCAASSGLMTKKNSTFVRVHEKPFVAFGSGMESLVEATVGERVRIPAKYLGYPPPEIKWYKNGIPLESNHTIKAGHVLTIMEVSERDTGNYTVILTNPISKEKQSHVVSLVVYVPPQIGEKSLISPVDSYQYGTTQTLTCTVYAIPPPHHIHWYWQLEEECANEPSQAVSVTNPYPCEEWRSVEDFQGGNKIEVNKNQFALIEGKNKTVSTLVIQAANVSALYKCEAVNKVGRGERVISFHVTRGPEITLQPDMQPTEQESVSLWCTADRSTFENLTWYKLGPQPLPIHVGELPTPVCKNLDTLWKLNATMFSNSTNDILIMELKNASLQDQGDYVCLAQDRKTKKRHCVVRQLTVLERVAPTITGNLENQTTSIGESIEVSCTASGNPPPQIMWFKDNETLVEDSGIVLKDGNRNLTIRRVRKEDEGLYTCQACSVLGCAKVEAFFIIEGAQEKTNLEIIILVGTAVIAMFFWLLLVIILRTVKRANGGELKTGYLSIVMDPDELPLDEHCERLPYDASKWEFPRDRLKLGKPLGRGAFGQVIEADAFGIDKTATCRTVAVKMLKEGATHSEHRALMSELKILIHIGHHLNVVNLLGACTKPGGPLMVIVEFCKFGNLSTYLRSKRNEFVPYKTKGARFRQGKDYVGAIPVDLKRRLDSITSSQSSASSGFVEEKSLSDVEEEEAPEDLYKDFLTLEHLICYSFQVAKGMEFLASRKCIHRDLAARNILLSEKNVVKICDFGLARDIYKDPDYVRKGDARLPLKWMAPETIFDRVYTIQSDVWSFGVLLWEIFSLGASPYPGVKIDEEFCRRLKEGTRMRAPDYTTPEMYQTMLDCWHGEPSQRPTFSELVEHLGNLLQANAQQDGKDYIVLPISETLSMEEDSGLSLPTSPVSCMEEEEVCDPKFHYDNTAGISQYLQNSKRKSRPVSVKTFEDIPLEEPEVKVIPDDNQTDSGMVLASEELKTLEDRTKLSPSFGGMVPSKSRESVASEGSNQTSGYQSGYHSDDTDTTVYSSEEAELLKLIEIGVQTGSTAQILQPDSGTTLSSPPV

[2] = tested on: ABL1 (human), P00519 [H396P]
EGFR (human) = EGFR (human) (UniProt P00533)
MAPK11 (human) = MAPK11 (human) (UniProt Q15759)
PRKCQ (human) = PRKCQ (human) (UniProt Q04759); settings: compound 0.1 µM
PIM2 (human) = PIM2 (human) (UniProt Q9P1W9)
LYN (human) = LYN (human) (UniProt P07948)
IRAK4 (human) = IRAK4 (human) (UniProt Q9NWZ3)
LCK (human) = LCK (human) (UniProt P06239)
Chain of LCK (human) (P06239 whole entry, looked up): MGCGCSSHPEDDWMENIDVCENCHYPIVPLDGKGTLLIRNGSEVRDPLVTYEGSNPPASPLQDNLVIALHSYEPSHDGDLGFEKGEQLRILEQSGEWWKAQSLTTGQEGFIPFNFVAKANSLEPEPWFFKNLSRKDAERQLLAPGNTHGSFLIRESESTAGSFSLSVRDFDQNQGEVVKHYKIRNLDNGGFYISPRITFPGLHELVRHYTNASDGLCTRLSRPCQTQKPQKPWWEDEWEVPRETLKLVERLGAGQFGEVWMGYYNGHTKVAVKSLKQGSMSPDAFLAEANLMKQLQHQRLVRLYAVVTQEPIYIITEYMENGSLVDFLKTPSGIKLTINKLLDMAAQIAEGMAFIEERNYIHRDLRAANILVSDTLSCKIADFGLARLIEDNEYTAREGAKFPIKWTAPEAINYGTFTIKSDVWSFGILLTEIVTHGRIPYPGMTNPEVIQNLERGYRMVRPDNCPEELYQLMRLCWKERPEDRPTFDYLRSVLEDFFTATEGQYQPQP

RAF1 (human) = RAF1 (human) (UniProt P04049)
Chain of RAF1 (human) (P04049 whole entry, looked up): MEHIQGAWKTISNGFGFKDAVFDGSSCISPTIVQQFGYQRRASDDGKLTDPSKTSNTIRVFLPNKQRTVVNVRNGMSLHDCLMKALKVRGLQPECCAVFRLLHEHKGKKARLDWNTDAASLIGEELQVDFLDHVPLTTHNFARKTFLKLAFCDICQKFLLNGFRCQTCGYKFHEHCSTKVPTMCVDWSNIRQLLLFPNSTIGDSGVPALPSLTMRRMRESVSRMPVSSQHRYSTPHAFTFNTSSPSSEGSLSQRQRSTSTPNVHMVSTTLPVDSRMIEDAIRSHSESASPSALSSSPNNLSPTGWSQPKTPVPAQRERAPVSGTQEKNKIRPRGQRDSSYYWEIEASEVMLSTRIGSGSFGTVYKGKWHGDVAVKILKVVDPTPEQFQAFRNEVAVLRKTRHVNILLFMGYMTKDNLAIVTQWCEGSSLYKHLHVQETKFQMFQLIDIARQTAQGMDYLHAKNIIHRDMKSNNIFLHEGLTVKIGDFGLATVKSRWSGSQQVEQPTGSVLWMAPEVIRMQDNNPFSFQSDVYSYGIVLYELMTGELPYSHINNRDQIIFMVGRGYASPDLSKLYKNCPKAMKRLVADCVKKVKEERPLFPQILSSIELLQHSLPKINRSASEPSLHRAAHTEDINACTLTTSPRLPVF

RPS6KA4 KD1 KD2 (human) = RPS6KA4 KD1 KD2 (human) (UniProt O75676); settings: compound 0.1 µM
AURKA (human) = AURKA (human) (UniProt O14965)
STK3 (human) = STK3 (human) (UniProt Q13188)
Chain of STK3 (human) (Q13188 whole entry, looked up): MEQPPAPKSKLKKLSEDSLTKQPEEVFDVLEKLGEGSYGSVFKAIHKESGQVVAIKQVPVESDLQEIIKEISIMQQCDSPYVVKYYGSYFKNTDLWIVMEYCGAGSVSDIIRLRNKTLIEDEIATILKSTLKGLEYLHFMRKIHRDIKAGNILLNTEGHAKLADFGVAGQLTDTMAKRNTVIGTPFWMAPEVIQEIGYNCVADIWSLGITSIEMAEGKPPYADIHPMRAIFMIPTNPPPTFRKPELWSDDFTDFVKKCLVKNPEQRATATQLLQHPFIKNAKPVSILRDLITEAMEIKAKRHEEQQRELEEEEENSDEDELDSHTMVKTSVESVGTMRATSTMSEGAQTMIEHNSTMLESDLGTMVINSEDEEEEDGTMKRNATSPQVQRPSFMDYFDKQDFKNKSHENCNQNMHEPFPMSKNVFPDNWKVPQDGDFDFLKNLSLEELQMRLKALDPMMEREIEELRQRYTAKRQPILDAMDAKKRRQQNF

BMX (human) = BMX (human) (UniProt P51813); settings: compound 0.1 µM
CAMK2D (human) = CAMK2D (human) (UniProt Q13557)
Chain of CAMK2D (human) (Q13557 whole entry, looked up): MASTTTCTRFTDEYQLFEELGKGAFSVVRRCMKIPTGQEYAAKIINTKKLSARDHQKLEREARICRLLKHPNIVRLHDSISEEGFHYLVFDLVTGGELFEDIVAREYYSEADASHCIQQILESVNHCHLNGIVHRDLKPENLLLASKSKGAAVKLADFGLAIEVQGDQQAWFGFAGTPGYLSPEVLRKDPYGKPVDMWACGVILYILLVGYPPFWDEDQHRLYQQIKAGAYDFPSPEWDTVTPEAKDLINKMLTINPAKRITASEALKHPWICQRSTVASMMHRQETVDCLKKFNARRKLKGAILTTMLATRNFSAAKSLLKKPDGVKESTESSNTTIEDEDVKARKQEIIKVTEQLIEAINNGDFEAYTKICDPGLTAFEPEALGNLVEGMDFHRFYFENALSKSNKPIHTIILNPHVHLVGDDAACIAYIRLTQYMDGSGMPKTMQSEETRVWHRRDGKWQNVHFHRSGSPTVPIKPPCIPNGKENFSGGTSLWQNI

HCK (human) = HCK (human) (UniProt P08631)
PRKCB2 (human) = PRKCB2 (human) (UniProt P05771)
AKT3 (human) = AKT3 (human) (UniProt Q9Y243)
Chain of AKT3 (human) (Q9Y243 whole entry, looked up): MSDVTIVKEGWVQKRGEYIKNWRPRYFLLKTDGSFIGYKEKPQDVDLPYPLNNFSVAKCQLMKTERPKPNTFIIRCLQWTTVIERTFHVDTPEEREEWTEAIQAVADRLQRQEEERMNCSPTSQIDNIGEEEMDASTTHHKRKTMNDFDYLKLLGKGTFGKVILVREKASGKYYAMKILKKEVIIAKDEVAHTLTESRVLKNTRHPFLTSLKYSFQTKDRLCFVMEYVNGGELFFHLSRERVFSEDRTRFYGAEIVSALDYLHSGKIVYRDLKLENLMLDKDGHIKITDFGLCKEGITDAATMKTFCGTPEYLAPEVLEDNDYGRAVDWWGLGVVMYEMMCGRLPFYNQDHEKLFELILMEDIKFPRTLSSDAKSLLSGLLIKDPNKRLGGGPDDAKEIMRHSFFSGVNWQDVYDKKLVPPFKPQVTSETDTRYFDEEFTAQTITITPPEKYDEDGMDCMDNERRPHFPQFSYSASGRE

SGK1 (human) = SGK1 (human) (UniProt O00141)
Chain of SGK1 (human) (O00141 whole entry, looked up): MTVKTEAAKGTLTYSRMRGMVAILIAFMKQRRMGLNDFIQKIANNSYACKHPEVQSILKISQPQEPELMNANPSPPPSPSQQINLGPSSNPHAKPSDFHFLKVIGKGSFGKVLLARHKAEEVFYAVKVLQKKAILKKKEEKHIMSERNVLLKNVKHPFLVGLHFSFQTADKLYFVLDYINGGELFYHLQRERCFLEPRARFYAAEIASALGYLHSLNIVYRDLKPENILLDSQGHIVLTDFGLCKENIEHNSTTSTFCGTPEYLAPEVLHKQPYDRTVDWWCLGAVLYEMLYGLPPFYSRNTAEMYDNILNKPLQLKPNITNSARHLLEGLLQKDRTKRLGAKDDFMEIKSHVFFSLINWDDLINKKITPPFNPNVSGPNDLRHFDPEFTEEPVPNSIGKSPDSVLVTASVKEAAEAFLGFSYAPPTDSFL

Structure (SMILES): Cn1cc(-c2cnc3ccc4ccc(CS(N)(=O)=O)cc4c(=O)c3c2)cn1
- inhibition (DYRK1A (human); compound 0.1 µM): 6.2%
- inhibition (DYRK1A (human); compound 1.0 µM): 32.9%
- inhibition (MARK3 (human); compound 0.1 µM): -2.4%
- inhibition (MARK3 (human); compound 1.0 µM): -3.3%
- inhibition ([1]; compound 0.1 µM): 19.1%
- inhibition ([1]; compound 1.0 µM): 73.7%
- inhibition (MAPK3 (human); compound 0.1 µM): -0.7%
- inhibition (MAPK3 (human); compound 1.0 µM): 3.6%
- inhibition (CHEK1 (human); compound 0.1 µM): -7.9%
- inhibition (CHEK1 (human); compound 1.0 µM): 3.1%
- inhibition (RPS6KA1 KD1 KD2 (human); compound 0.1 µM): -12.4%
- inhibition (RPS6KA1 KD1 KD2 (human); compound 1.0 µM): -3%
- inhibition (MAPK13 (human); compound 0.1 µM): -3.2%
- inhibition (MAPK13 (human); compound 1.0 µM): -9.3%
- inhibition (GSK3B (human); compound 0.1 µM): -2.7%
- inhibition (GSK3B (human); compound 1.0 µM): 9.3%
- inhibition (CSNK1A1 (human); compound 0.1 µM): -2.8%
- inhibition (CSNK1A1 (human); compound 1.0 µM): -4.1%
- inhibition (MAPKAPK2 (human); compound 0.1 µM): -2.6%
- inhibition (MAPKAPK2 (human); compound 1.0 µM): 8%
- inhibition (PRKCH (human); compound 0.1 µM): -6.7%
- inhibition (PRKCH (human); compound 1.0 µM): 0.2%
- inhibition (MAPKAPK5 (human); compound 0.1 µM): 1.3%
- inhibition (MAPKAPK5 (human); compound 1.0 µM): -7.9%
- inhibition (SYK (human); compound 0.1 µM): 1.9%
- inhibition (SYK (human); compound 1.0 µM): 7.6%
- inhibition (PRKACA (human); compound 0.1 µM): -5.5%
- inhibition (PRKACA (human); compound 1.0 µM): -1.1%
- inhibition (KDR (human); compound 0.1 µM): 32.6%
- inhibition (KDR (human); compound 1.0 µM): 64%
- inhibition ([2]; compound 0.1 µM): -0.9%
- inhibition ([2]; compound 1.0 µM): 9.4%
- inhibition (EGFR (human); compound 0.1 µM): 13.3%
- inhibition (EGFR (human); compound 1.0 µM): 9.2%
- inhibition (MAPK11 (human); compound 0.1 µM): -1.8%
- inhibition (MAPK11 (human); compound 1.0 µM): -4.1%
- inhibition (PRKCQ (human)): 5.2%
- inhibition (PIM2 (human); compound 0.1 µM): 15.4%
- inhibition (PIM2 (human); compound 1.0 µM): 16.5%
- inhibition (LYN (human); compound 0.1 µM): -8.7%
- inhibition (LYN (human); compound 1.0 µM): -2.3%
- inhibition (IRAK4 (human); compound 0.1 µM): 6%
- inhibition (IRAK4 (human); compound 1.0 µM): -8.2%
- inhibition (LCK (human); compound 0.1 µM): 2.4%
- inhibition (LCK (human); compound 1.0 µM): -1.7%
- inhibition (RAF1 (human); compound 0.1 µM): 6.2%
- inhibition (RAF1 (human); compound 1.0 µM): -3.8%
- inhibition (RPS6KA4 KD1 KD2 (human)): 15.2%
- inhibition (AURKA (human); compound 0.1 µM): 27.6%
- inhibition (AURKA (human); compound 1.0 µM): 75.5%
- inhibition (STK3 (human); compound 0.1 µM): 4.4%
- inhibition (STK3 (human); compound 1.0 µM): 7.9%
- inhibition (BMX (human)): 1.6%
- inhibition (CAMK2D (human); compound 0.1 µM): 4.9%
- inhibition (CAMK2D (human); compound 1.0 µM): 25.1%
- inhibition (HCK (human); compound 0.1 µM): -59.1%
- inhibition (HCK (human); compound 1.0 µM): -1.6%
- inhibition (PRKCB2 (human); compound 0.1 µM): 2.6%
- inhibition (PRKCB2 (human); compound 1.0 µM): -6%
- inhibition (AKT3 (human); compound 0.1 µM): 3.1%
- inhibition (AKT3 (human); compound 1.0 µM): 3.13%
- inhibition (SGK1 (human); compound 0.1 µM): 6.8%
- inhibition (SGK1 (human); compound 1.0 µM): 11.5%
